For data set [1] the following is noted: reference substances with known distribution coefficients; cited from earlier work.
For data set [2], the target named is human serum albumin (HSA) (Homo sapiens (Human), UniProt P02768). The data set is described as follows: Protein binding to human serum albumin (HSA-Transil). To be noted: buffer pH 7.4. The method, then: Assays for Determining Membrane Affinity logMA and Protein Binding to Human Serum Albumin (HSA): Determination of membrane affinity and protein binding to human serum albumin (HSA) was carried out via Transil technology (literature: A. Loidl-Stahlhofen, A. Eckert, T. Hartmann, M. […] Pharm Sci 90, 599-606 (2001)). Transil® (commercially available from Sovicell in Leipzig, Germany) are glass beads (diameter 10-12 μm) coated with a double-layer membrane of phosphatidylcholine (MA-Transil) or covalently attached human serum albumin (HSA-Transil). To determine the logMA and the protein binding constant to HSA, the commercially available TRANSIL Intestinal Absorption & HSA Binding Combined Assay Kit was used. This is a 96-well microtitre plate (96 well-MTP) which is filled with Transil and can be used to determine MA-Transil and HSA-Transil binding of in each case eight active compounds. […] Two wells serve as reference and are only filled with buffer pH 7.4. Five further wells contain MA-Transil in various increasing concentrations, the five remaining wells contain HSA-Transil in various increasing concentrations. To determine binding of an active compound to Transil, the supernatant of the wells with Transil was quantified against the reference solution without Transil via HPLC-MS coupling (HPLC-MS=high performance liquid chromatography/mass spectrometry). This is how the individual steps of the assay were carried out: From the internal substance store, the active compounds were delivered in a 96-well MTP. This plate is referred to as mother plate. […] Warfarin, whose membrane affinity and binding to HSA is known, serves to check whether the measurement is correct. […] Using a Hamilton pipetting robot Microlab STAR, the 96 active compounds from the daughter plate were divided onto 12 Transil plates in total. From each well of the daughter plate, 12 times 20 μl were removed. The concentration of each well of the Transil plate was 0.25 μmol/liter, which corresponds to a dilution of 1 to 10. […] The filled Transil plates were each resuspended for two minutes, then allowed to stand at room temperature for at least two minutes and then centrifuged at 600 rotations per minute for five minutes. The pipetting robot was then used to remove 20 μl of supernatant from each well of the Transil plate and to transfer these to a separate microtitre plate. […] Prior to quantification of the active compounds by HPLC-MS, an optimization has to be carried out for each active compound where by way of a single injection daughter ion and optimum electrical voltages are determined. […] This microtitre plate was measured by HPLC-MS using the software Discovery Quant Optimize from AB Sciex. The three pooled microtitre plates were measured by HPLC-MS using the software Discovery Quant Analyze from AB Sciex. • Sciex Triple Quad 5500 mass spectrometer (from AB Sciex) • PAL Autosampler DLW Option Software: Analyst 1.4 (from AB Sciex) • Discovery Quant Optimize (from AB Sciex) • Discovery Quant Analyze (from AB Sciex) Optimization: […] Column: Poroshell 120 SB-C18 2.7 μm 3×30 mm Injection volume: 2 μl Flow rate: 1 ml/min: […] Evaluation of the HPLC peaks was carried out using Discovery Quant Analyze. The results (logMA and binding constant to HSA Kd) were calculated using an Excel workbook provided by Sovicell.

The subject of data set [3] is human ACC1. The data set is described as follows: Human ACC1 enzyme assay (ADP-Glo). Type of data set: biochemical. To be noted: for Ratio IC50s ACC2/ACC1 (respective measurement): pairwise, same dilution series. As for the experimental part:
(§1) Typical concentrations were in the range of 1.75 μl.
Background: ADP-Glo first removes unused ATP, then detects ADP through luciferase.

In data set [4] the target is human ACC1 (Homo sapiens, UniProt Q13085). The data set is described as follows: Human ACC1 enzyme assay (ADP-Glo). To be noted: individual measurement (measurement no./preparation no. in table); read-out: ACC 1 IC50. The class given is biochemical. As for the experimental part: as §1
Data set [5] can be described thus: Plasma protein binding by equilibrium dialysis. The class given is in vitro ADME. As for the experimental part: The binding of test substances to plasma proteins is determined by equilibrium dialysis by means of the Ht-dialysis apparatus (96-well) made of Teflon and a semipermeable membrane (regenerated cellulose, MWCO 12-14K). This separates 150 μl each of a plasma side and a buffer side (50 mM phosphate buffer). The test substance is added in 2 concentrations (usually 3 and 0.3 μM) to the plasma side and binds to plasma proteins. The unbound fraction of the test substance passes through the membrane and is distributed on either side until equilibrium is established (after approx. 6-8 h at 37° C.). The substance concentration on the buffer side and the plasma side is determined by LC-MS analysis. For this, both sides are brought by dilution with buffer or plasma to the same matrix (10% plasma) and then precipitated with methanol. The free (unbound) fraction (fu) is calculated from the quotient of the buffer and plasma concentration. Stability tests and recovery tests are run concurrently as controls. In addition, the substance in buffer is dialysed against buffer, to check the nonspecific binding to apparatus and membrane and establishment of equilibrium. Because during incubation the osmotic pressure of the plasma proteins leads to dilution of the plasma (volume shift), this possible error is determined by weighing blank plasma samples and is included in the calculation of fu. Establishment of equilibrium and plasma stability should have a value not lower than 80% and the recovery should be at least 30%. A free fraction of <1% is regarded as high, between 1 and 10% as moderate and >10% as low plasma protein binding.
In general terms: In equilibrium dialysis only unbound substance equilibrates across the membrane.

A short description of data set [6]: Membrane affinity logMA (MA-Transil). Type of data set: physicochemical. To be noted: buffer pH 7.4. As for the experimental part: Assays for Determining Membrane Affinity logMA and Protein Binding to Human Serum Albumin (HSA):
Determination of membrane affinity and protein binding to human serum albumin (HSA) was carried out via Transil technology (literature: A. Loidl-Stahlhofen, A. Eckert, T. Hartmann, M. Schöttner J Pharm Sci 90, 599-606 (2001)). Transil® (commercially available from Sovicell in Leipzig, Germany) are glass beads (diameter 10-12 μm) coated with a double-layer membrane of phosphatidylcholine (MA-Transil) or covalently attached human serum albumin (HSA-Transil).
To determine the logMA and the protein binding constant to HSA, the commercially available TRANSIL Intestinal Absorption & HSA Binding Combined Assay Kit was used. This is a 96-well microtitre plate (96 well-MTP) which is filled with Transil and can be used to determine MA-Transil and HSA-Transil binding of in each case eight active compounds. For each active compound, the Transil plate provides a row of 12 wells. Two wells serve as reference and are only filled with buffer pH 7.4. Five further wells contain MA-Transil in various increasing concentrations, the five remaining wells contain HSA-Transil in various increasing concentrations.
To determine binding of an active compound to Transil, the supernatant of the wells with Transil was quantified against the reference solution without Transil via HPLC-MS coupling (HPLC-MS=high performance liquid chromatography/mass spectrometry).
This is how the individual steps of the assay were carried out:
From the internal substance store, the active compounds were delivered in a 96-well MTP. This plate is referred to as mother plate. Each well contained 30 μl of a 10 mmol solution of active compound in DMSO (dimethyl sulphoxide). Two wells at the start (well A1) and at the end of the plate (well H12) were filled with 30 μl of a 10 mmol solution of warfarin in DMSO. Warfarin, whose membrane affinity and binding to HSA is known, serves to check whether the measurement is correct. The mother plate was used to prepare a daughter plate with a 1 to 4000 dilution with a mixture of buffer pH 7.4 and DMSO in a ratio of 1+1. The active compound concentration of each well was 2.5 μmol/liter, the volume of each well was 400 μl.
Using a Hamilton pipetting robot Microlab STAR, the 96 active compounds from the daughter plate were divided onto 12 Transil plates in total. From each well of the daughter plate, 12 times 20 μl were removed. The concentration of each well of the Transil plate was 0.25 μmol/liter, which corresponds to a dilution of 1 to 10. The DMSO content was 5%.
The filled Transil plates were each resuspended for two minutes, then allowed to stand at room temperature for at least two minutes and then centrifuged at 600 rotations per minute for five minutes. The pipetting robot was then used to remove 20 μl of supernatant from each well of the Transil plate and to transfer these to a separate microtitre plate. Here, the supernatants of in each case four Transil plates were pooled in a microtitre plate, so that at the end there were three pooled microtitre plates with in each case 80 μl of solution and an active compound concentration of 62.5 nM per well.
Prior to quantification of the active compounds by HPLC-MS, an optimization has to be carried out for each active compound where by way of a single injection daughter ion and optimum electrical voltages are determined. To this end, the pipetting robot prepared a dilution of the mother plate of 1 to 10 000 000 in an acetonitrile/water mixture in a ratio of 8+2 in a separate microtitre plate. This microtitre plate was measured by HPLC-MS using the software Discovery Quant Optimize from AB Sciex. The three pooled microtitre plates were measured by HPLC-MS using the software Discovery Quant Analyze from AB Sciex. […]

[7] abbreviates: human plasma, read-out: fu [%] (human).
Setting [8] is: mouse plasma, read-out: fu [%] (mouse).

The values below come from US9278925B2, “Substituted 3-(biphenyl-3-yl)-4-hydroxy-8-methoxy-1-azaspiro[4.5]dec-3-en-2-one” (BAYER INTELLECTUAL PROPERTY GMBH, priority 2011, dated 2016).

Values joined by “and” are separate entries in the source; they are usually repeats but may differ in a detail not shown here. Identical values can stand only once. Like-named read-outs stand apart in the source and are kept apart here.

human serum albumin (HSA), sequence (P02768 25-609): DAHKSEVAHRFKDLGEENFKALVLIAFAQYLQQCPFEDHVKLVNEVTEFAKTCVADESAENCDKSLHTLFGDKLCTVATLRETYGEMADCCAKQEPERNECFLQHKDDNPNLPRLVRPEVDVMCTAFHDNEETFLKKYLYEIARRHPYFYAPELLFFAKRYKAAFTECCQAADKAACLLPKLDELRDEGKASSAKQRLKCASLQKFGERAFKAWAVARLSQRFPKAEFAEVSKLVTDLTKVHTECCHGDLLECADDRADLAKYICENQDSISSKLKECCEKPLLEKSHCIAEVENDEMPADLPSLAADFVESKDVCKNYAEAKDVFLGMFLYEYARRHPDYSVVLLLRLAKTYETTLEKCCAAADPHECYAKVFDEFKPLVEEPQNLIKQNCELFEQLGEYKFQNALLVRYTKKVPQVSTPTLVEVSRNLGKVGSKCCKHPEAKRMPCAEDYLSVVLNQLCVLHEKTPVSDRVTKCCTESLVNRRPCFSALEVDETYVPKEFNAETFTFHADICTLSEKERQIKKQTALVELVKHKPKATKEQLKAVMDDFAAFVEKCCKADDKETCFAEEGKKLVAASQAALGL

In the case of `c1ccc(-c2cccc(-c3ccccc3)n2)cc1` [2,6-diphenylpyridine], in data set [1], the “log P” value is recorded as 4.9.

Turning to `Clc1ccc(C(c2ccc(Cl)cc2)C(Cl)(Cl)Cl)cc1` [DDT], the “log P” value in data set [1] was 6.2.

Consider `Cc1ccc(-c2ccc(Cl)cc2)cc1C1=C(O)[C@]2(CC[C@H](C(F)(F)F)CC2)NC1=O` [V.1-b, (5s,8s)-3-(4′-Chloro-4-methylbiphenyl-3-yl)-4-hydroxy-8-(trifluoromethyl)-1-azaspiro[4.5]dec-3-en-2-one], for which, in data set [2], binding was put at a Kd of 3070 nM. For the same compound, in the data set on human ACC1 [3], the “Selectivity ACC1 vs. ACC2 (mean of the individual measurements ± standard deviation)” value worked out at 9.8 ± 1.4; the “Ratio IC50s ACC2/ACC1 (respective measurement)” value is 11.2 and 8.4. The IC50 on human ACC1 [4] is 109 nM and 111 nM. In addition, the fraction unbound in data set [5] (setting [7]) turned out to be 0.0007. The fraction unbound in data set [5] (setting [8]) was 0.0241. Also, the logMA in data set [6] was determined as 2.38.

On to `Cc1ccc(-c2ccc(Cl)c(F)c2)cc1C1=C(O)[C@]2(CC[C@H](C(F)(F)F)CC2)NC1=O` [V.2-b, (5s,8s)-3-(4′-Chloro-3′-fluoro-4-methylbiphenyl-3-yl)-4-hydroxy-8-(trifluoromethyl)-1-azaspiro[4.5]dec-3-en-2-one], for which the “Selectivity ACC1 vs. ACC2 (mean of the individual measurements ± standard deviation)” value in the data set with human ACC1 [3] was found to be 9.4 ± 0.8. In the data set on human ACC1 [3], the “Ratio IC50s ACC2/ACC1 (respective measurement)” value was 8.6 and 10.3. Also, the fraction unbound in data set [5] (setting [7]) is 0.0005; in data set [5] (setting [8]) it was 0.019. The logMA in data set [6] worked out at 2.55.

For the compound `COC(=O)c1ccccc1` [methyl benzoate], in data set [1], the “log P” value is recorded as 2.1.

Usually log P stands for the decadic logarithm of the partition coefficient of the neutral form, usually between octanol and water. For orientation: Kd means the free concentration of one partner at which half of the binding sites on the other are occupied at equilibrium, for simple one-to-one binding. A high value points to weaker binding. By IC50 is commonly meant the point on the concentration scale where inhibition reaches its midpoint.
